Experimental data: ChEMBL document CHEMBL1743201, “Casarett and Doull's Toxicology The Basic Science of Poisons, 7th edition” (2008)

Assays:
Type in all cases: ADME
Sulfotransferase 1E1 = target: T1, Sulfotransferase 1E1 (Homo sapiens, UniProt P49888); test: Major substrate of human cytosolic sulfotransferase SULT1E1
T1 sequence (P49888 whole entry): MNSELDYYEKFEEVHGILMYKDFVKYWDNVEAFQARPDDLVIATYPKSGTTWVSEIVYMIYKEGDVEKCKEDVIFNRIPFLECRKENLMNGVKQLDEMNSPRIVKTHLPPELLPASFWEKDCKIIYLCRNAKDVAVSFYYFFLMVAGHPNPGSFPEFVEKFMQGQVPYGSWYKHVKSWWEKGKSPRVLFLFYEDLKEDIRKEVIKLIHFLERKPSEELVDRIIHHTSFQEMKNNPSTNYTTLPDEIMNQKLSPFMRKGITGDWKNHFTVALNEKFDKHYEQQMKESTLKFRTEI

[1] = target: T2, UDP-glucuronosyltransferase 1A9 (Homo sapiens, UniProt O60656); test: Substrate of human UDP-glucuronosyltransferase UGT1A9
T2 sequence (O60656 whole entry): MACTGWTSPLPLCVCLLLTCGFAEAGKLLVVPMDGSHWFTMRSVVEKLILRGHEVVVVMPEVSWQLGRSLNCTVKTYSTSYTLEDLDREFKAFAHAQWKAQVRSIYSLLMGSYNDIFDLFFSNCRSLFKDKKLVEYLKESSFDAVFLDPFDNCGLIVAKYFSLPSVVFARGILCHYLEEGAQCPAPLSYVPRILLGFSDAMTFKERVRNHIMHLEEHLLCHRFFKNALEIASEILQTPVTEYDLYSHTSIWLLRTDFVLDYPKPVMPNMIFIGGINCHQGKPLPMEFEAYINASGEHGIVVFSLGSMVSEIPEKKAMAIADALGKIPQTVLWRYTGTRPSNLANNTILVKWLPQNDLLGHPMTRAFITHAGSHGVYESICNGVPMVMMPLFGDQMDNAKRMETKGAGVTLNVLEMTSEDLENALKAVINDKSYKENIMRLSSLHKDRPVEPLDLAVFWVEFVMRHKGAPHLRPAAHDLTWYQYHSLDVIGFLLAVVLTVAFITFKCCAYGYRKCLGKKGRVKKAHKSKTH

[2] = target: T3, UDP-glucuronosyltransferase 1A8 (Homo sapiens, UniProt Q9HAW9); test: Substrate of human UDP-glucuronosyltransferase UGT1A8
T3 sequence (Q9HAW9 whole entry): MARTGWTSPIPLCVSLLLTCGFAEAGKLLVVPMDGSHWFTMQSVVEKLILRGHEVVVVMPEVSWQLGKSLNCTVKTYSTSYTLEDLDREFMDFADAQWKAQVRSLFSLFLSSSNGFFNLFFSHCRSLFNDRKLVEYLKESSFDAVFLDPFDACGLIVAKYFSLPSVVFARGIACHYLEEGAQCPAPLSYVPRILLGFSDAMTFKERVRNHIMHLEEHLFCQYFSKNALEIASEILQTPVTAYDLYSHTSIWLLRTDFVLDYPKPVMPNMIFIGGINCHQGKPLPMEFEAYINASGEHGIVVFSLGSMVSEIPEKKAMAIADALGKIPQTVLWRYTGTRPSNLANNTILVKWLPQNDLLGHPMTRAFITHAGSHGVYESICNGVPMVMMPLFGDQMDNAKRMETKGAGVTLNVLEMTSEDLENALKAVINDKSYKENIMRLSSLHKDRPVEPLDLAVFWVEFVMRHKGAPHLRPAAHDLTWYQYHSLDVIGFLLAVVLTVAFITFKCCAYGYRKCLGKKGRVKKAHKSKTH

[3] = target: T4, UDP-glucuronosyltransferase 2B7 (Homo sapiens, UniProt P16662); test: Substrate of human UDP-glucuronosyltransferase UGT2B7
T4 sequence (P16662 whole entry): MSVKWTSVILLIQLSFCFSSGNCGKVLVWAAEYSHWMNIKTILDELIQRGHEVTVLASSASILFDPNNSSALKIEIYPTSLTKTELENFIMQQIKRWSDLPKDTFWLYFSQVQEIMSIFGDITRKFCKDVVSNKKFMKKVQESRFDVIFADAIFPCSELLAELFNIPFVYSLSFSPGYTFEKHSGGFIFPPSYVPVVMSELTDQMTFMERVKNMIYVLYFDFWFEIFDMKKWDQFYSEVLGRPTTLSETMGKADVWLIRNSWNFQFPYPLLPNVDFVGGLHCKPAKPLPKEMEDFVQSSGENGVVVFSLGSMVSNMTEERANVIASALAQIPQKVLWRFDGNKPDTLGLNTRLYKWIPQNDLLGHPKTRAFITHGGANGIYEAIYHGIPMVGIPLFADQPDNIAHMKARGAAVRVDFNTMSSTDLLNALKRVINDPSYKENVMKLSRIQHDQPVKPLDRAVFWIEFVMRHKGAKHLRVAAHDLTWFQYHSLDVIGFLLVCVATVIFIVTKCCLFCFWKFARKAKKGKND

Cytochrome P450 1A2 = target: T5, Cytochrome P450 1A2 (Homo sapiens, UniProt P05177); test: Clinically relevant substrates of human liver microsomal P450 enzymes, isoform CYP1A2; details: microsomes
T5 sequence (P05177 whole entry): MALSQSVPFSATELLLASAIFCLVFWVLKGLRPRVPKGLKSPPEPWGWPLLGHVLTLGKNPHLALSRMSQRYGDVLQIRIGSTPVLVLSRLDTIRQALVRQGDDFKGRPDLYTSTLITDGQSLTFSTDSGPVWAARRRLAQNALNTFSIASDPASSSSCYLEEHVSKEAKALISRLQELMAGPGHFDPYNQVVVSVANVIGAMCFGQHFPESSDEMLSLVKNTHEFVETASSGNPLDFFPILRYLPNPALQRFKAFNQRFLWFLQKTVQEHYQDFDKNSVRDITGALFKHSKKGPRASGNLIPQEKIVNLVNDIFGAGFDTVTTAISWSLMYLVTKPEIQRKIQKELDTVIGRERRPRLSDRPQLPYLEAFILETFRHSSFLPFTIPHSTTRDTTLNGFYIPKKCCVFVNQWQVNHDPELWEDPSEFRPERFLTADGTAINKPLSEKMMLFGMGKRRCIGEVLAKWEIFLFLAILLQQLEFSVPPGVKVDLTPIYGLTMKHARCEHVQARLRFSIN

Sulfotransferase 2A1 = target: T6, Sulfotransferase 2A1 (Homo sapiens, UniProt Q06520); test: Major substrate of human cytosolic sulfotransferase SULT2A1
T6 sequence (Q06520 whole entry): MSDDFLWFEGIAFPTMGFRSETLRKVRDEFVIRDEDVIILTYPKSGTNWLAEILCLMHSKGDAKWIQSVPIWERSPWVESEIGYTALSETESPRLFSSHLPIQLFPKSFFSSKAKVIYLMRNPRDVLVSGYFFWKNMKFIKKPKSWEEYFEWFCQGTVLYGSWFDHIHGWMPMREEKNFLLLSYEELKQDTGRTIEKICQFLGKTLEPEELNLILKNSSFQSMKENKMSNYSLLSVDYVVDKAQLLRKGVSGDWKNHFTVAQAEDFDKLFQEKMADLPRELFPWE

Sulfotransferase 1A1 = Sulfotransferase 1A1 (Homo sapiens, UniProt P50225); test: Major substrate of human cytosolic sulfotransferase SULT1A1
Chain of Sulfotransferase 1A1 (P50225 whole entry): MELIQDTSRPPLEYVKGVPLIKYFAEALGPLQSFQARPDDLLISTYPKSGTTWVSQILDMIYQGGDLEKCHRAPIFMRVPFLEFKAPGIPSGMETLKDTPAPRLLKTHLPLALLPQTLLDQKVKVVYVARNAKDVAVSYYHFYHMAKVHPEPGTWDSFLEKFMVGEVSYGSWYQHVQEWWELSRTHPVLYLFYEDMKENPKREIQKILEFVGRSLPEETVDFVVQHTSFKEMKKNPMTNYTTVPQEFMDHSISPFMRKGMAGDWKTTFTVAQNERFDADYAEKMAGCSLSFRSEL

[4] = target: T7, Glutathione S-transferase A1 (Homo sapiens, UniProt P08263); test: Substrates for human cytosolic glutathione transferase GSTA1
T7 sequence (P08263 whole entry): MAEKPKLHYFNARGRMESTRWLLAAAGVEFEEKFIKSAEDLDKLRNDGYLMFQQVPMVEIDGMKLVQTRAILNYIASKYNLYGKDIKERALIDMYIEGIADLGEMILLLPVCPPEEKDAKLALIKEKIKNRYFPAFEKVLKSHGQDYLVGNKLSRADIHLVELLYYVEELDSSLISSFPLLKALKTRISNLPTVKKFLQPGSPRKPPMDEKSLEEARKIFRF

CC/C(=C(\c1ccccc1)c1ccc(OCCN(C)C)cc1)c1ccccc1 [TAMOXIFEN]
Activity (Sulfotransferase 1E1): Substrate

CCCCNc1cc(C(=O)O)cc(S(N)(=O)=O)c1Oc1ccccc1 [BUMETANIDE]
Activity [1]: Substrate

O=C(O)c1cc(-c2ccc(F)cc2F)ccc1O [DIFLUNISAL]
Activity [2]: Substrate | Activity [1]: Substrate

Cc1cn([C@H]2C[C@H](N=[N+]=[N-])[C@@H](CO)O2)c(=O)[nH]c1=O [ZIDOVUDINE]
Activity [3]: Substrate

O=C(O)c1ccccc1O [SALICYLIC ACID]
Activity [1]: Substrate

Cn1c(=O)c2c(ncn2C)n(C)c1=O [CAFFEINE]
Activity (Cytochrome P450 1A2): Substrate

CCN(CC)CCNc1ccc(CO)c2sc3ccccc3c(=O)c12 [HYCANTHONE]
Activity (Sulfotransferase 2A1): Substrate

Cc1ccc(O)cc1 [p-CRESOL]
Activity (Sulfotransferase 1A1): Substrate

CC(C)(Oc1ccc(C2CC2(Cl)Cl)cc1)C(=O)O (stereo unspecified) [CIPROFIBRATE]
Activity [2]: Substrate

OC1c2ccc3c4ccccc4c4ccccc4c3c2C2OC2C1O (stereo unspecified) [BENZO[G]CHRYSENE DIOL EPOXIDE]
Activity [4]: Substrate

Cc1cc(CC(=O)O)n(C)c1C(=O)c1ccc(Cl)cc1 [ZOMEPIRAC]
Activity [3]: Substrate

C=CCN1CC[C@]23c4c5ccc(O)c4O[C@H]2C(=O)CC[C@@]3(O)[C@H]1C5 [NALOXONE]
Activity [3]: Substrate

OC1c2ccc3ccc4ccccc4c3c2C2OC2C1O (stereo unspecified) [BENZO[C]PHENANTHRENE DIOL EPOXIDE]
Activity [4]: Substrate

CC(C)[N+](=O)[O-]
Activity (Sulfotransferase 1A1): Substrate

CN1CC[C@]23c4c5ccc(O)c4O[C@H]2[C@@H](O[C@@H]2O[C@H](C(=O)O)[C@@H](O)[C@H](O)[C@H]2O)C=C[C@H]3[C@H]1C5 [MORPHINE GLUCURONIDE]
Activity [3]: Substrate

CS(=O)(=O)OCCCCOS(C)(=O)=O [BUSULFAN]
Activity [4]: Substrate

Cn1c(N)nc2ncc(-c3ccccc3)cc21 [2-AMINO-1-METHYL-6- PHENYLIMIDAZO[4,5- B]PYRIDINE]
Activity [4]: Substrate

Cc1[nH]cnc1CN1CCc2c(c3ccccc3n2C)C1=O [ALOSETRON]
Activity (Cytochrome P450 1A2): Substrate

CC(C)(Oc1ccc(Cl)cc1)C(=O)O [CLOFIBRIC ACID]
Activity [2]: Substrate | Activity [3]: Substrate

CNCC[C@H](Oc1cccc2ccccc12)c1cccs1 [DULOXETINE]
Activity (Cytochrome P450 1A2): Substrate

C[C@]12CC[C@@H]3c4ccc(O)c(O)c4CC[C@H]3[C@@H]1CC[C@@H]2O
Activity (Sulfotransferase 1E1): Substrate

CC(C(=O)O)c1ccc(C(=O)c2ccccc2)s1 (stereo unspecified) [TIAPROFENIC ACID]
Activity [3]: Substrate

CCOc1ccc2nc3ccc(=O)cc-3oc2c1 [ETHOXYRESORUFIN]
Activity (Cytochrome P450 1A2): Substrate

CN1CCc2cccc3c2[C@H]1Cc1ccc(O)c(O)c1-3 [APOMORPHINE]
Activity (Sulfotransferase 1A1): Substrate

O=C(O)Cc1cn(-c2ccc(O)cc2)nc1-c1ccc(Cl)cc1
Activity (Sulfotransferase 1E1): Substrate

CCc1ccc(O)cc1
Activity (Sulfotransferase 1A1): Substrate

Nc1cc(N2CCCCC2)nc(N)[n+]1[O-] [MINOXIDIL]
Activity (Sulfotransferase 1A1): Substrate

O=C(O)c1cccnc1Nc1cccc(C(F)(F)F)c1 [NIFLUMIC ACID]
Activity [2]: Substrate

Nc1c2c(nc3ccccc13)CCCC2 [TACRINE]
Activity (Cytochrome P450 1A2): Substrate

C[C@]12CC[C@@H]3c4cc(O)c(O)cc4CC[C@H]3[C@@H]1CC[C@@H]2O
Activity (Sulfotransferase 1E1): Substrate

CC(C)c1cccc(C(C)C)c1O [PROPOFOL]
Activity [1]: Substrate

O=C1C[C@@H](c2ccc(O)cc2)Oc2cc(O)cc(O)c21 [NARINGENIN]
Activity (Sulfotransferase 1E1): Substrate

O=C1c2ccccc2C(=O)c2ccccc21 [ANTHRAQUINONE]
Activity [2]: Substrate

CC(C(=O)O)c1ccc2oc(-c3ccc(Cl)cc3)nc2c1 (stereo unspecified) [BENOXAPROFEN]
Activity [3]: Substrate

Clc1ccc2nsnc2c1NC1=NCCN1 [TIZANIDINE]
Activity (Cytochrome P450 1A2): Substrate

Cn1c(NO)nc2ncc(-c3ccccc3)cc21
Activity (Sulfotransferase 1A1): Substrate

C[C@]12CC[C@@H]3c4cc(O)c(O)cc4CC[C@H]3[C@@H]1CCC2=O [2-HYDROXYESTRONE]
Activity (Sulfotransferase 1E1): Substrate

OCc1c2ccccc2c2ccc3cccc4ccc1c2c43
Activity (Sulfotransferase 2A1): Substrate

C[C@]12CCc3c(ccc4cc(O)ccc34)[C@@H]1CCC2=O [EQUILENIN]
Activity (Sulfotransferase 1E1): Substrate

CC(C)OC(=O)C(C)(C)Oc1ccc(C(=O)c2ccc(Cl)cc2)cc1 [FENOFIBRATE]
Activity [1]: Substrate

Oc1cccc2cccnc12 [OXYQUINOLINE]
Activity [2]: Substrate

Cn1c(=O)c2[nH]cnc2n(C)c1=O.O [THEOPHYLLINE]
Activity (Cytochrome P450 1A2): Substrate

CCOc1ccc(NC(C)=O)cc1 [PHENACETIN]
Activity (Cytochrome P450 1A2): Substrate

CCCC1O[C@@H]2C[C@H]3[C@@H]4CCC5=CC(=O)C=C[C@]5(C)[C@H]4[C@@H](O)C[C@]3(C)[C@]2(C(=O)CO)O1 (stereo partly specified) [BUDESONIDE]
Activity (Sulfotransferase 2A1): Substrate
